Assay results from patent publication US20020110808A1, “Toxicant-induced differential gene expression” (priority 2000, published 2002).
Where two headings read alike, the source gives them in different places. Blank lines part the entries; values can stand above or below the molecule they belong to.

Key:
HepG2 cells [1] = assay: Differential display PCR (DD-PCR) of mRNA from treated cells; format: cell-based, human; conditions: visual inspection, not confirmed
Procedure: For each reverse transcription reaction, 50 ng of mRNA was incubated with a 3′ Anchored Primer (1 μM) at 65° C. for 5 minutes. The tubes were chilled and spun briefly. […] The final volume was 20 μl. Tubes were heated to 25° C. for 10 min, 42° C. for 60 min, and 70° C. for 15 min. The cDNA produced was either used immediately or stored at −20° C.
The DD-PCR was performed under the conditions recommended by Genomyx Corporation: 95° C. for 2 min; 4 cycles of 92° C. for 15 sec, 46° C. for 30 sec, 72° C. for 2 min; 25 cycles of 92° C. for 15 sec, 60° C. for 30 sec, 72° C. for 2 min; and one cycle of 72° C. for 7 min, followed by cooling at 4° C.
Stop solution (11 μl) was added to each reaction. The tubes were then heated for 2 min at 95° C. A 3-μl aliquot of each reaction was run on a 4.5% denaturing polyacrylamide gel for 16 hours at 800 V, 50° C. Under these conditions, bands ranging from 300 to 1200 base-pairs were well-resolved. Band excision and reamplification were performed according to the instructions given in the Genomyx Corporation protocol. The reamplification reaction mixture was added directly to the excised band and the PCRs were performed under the same conditions as the original DD-PCR, with the exceptions that the M13R(−48) and T7 primers (SEQ ID NO: 3 AND SEQ ID NO: 2, respectively) were used instead of the original anchored and arbitrary primers and [α-^33P]dATP was omitted. The PCR products were purified with S-400 HR microspin columns (Pharmacia).

HepG2 cells [2] = assay: cDNA array (GF200) expression profiling; format: cell-based, human; conditions: for Number of genes with statistically significant (p<0.05) change in expression in three or more adjacent time points: 1 to 24 hr time course
Procedure: Cells were grown in DMEM/F12 medium with 10% fetal bovine serum in tissue culture flasks for 3 days following splitting, at which time they were at or near confluency. […] For each treated sample, an untreated control flask was set up with the same medium. Following the treatment period, mRNA was isolated by affinity purification on oligo(dT) cellulose resin using the Poly(A) Pure mRNA isolation kit from Ambion. RNA quality was assessed by agarose gel electrophoresis, and yields were determined by absorbance at 260 nm.
Radiolabeled cDNA for array hybridizations were prepared as follows. To a solution of 2 μg of RNA in 8 μl DEPC-treated water was added 2 μl of 1 μg/μl oligo(dT) (10-20 mer mixture, Research Genetics). After incubation for 10 min at 70° C., the solution was chilled on ice for 2 min, and then added to 6 μl of 5× first strand buffer (250 mM Tris-HCl (pH 8.3), 375 mM KCl, 15 mM MgCl2; Gibco-BRL), 1 μl of 0.1M DTT, 1.5 μl dNTP mix (20 mM each dATP, dGTP and dTTP), 10 μl of 10 mCi/ml [α-^33P]dCTP (1000 Ci/mmol, Amersham), and 1.5 μl of 200 U/μl reverse transcriptase (Superscript II, Gibco-BRL). Following a 90 min incubation at 37° C., cDNA targets were purified by passage through G-50 Sephadex spin columns (Pharmacia) or Bio-Spin 6 columns (BioRad).
GF200 cDNA arrays (Research Genetics) were washed in 0.5% boiling SDS for 5 min and prehybridized for 3 hrs at 42° C. in 5 ml MicroHyb solution (Research Genetics) containing 5 μl of 1 μg/ml poly(dA) (Research Genetics) and 5 μl of 1 μg/ml human Cot-I DNA (Gibco-BRL) that was denatured for 3 min at 100° C. prior to use. Labeled target nucleic acids, boiled for 3 min, were added directly, and hybridization was allowed to proceed for 16-18 hr at 42° C. in roller bottles in hybridization ovens. Arrays were washed twice in 2× SSC, 1% SDS at room temperature for 2 min, and then twice in 0.5× SSC, 1% SDS at 65° C. for 20 min. Arrays were exposed to storage phosphor screens for 3 days and scanned using a phosphorimager (Molecular Dynamics). Arrays were stripped for reuse by placing in boiling 0.5% SDS and then incubating for 1.5 hr with shaking at room temperature, allowing to solution to cool. After stripping, arrays were exposed to storage phosphor screens overnight to confirm loss of signal.
Spot intensities were determined using Pathways software (Research Genetics). Data from quadruplicate sets of hybridizations were normalized by local regression using NLR software (Tom Kepler, North Carolina State University). Cluster analysis was carried out using the Clustan Graphics software package from Clustan Limited (Edinburgh).

HepG2 cells [3] = assay: BrdU incorporation cell proliferation assay; format: cell-based
Procedure: HepG2 cells (see e.g., Aden et al., Nature 282:615-616 (1979)) (ATCC HB-8065) were maintained in DMEM/F-12 medium with 10% fetal bovine serum and 1% antibiotic/antimycotic. For routine culturing and mRNA preps, cells were grown in 75 cm^2 flasks and split every 4-5 days. For plate assays, cells were plated in 96-well microtiter plates at 1×10^5 cells per well in 100 μl of growth medium.
Depending on the desired exposure time, cell treatments began 3 or 4 days after splitting or plating. At this time, the cells were near or at confluency. […] Cell treatments were at 37° C.
Uptake of 5-bromo-2′-deoxyuridine (BrdU) was measured using the Cell Proliferation ELISA kit from Boehringer-Mannheim (Indianapolis, Ind.).
Cell proliferation assays based on measurement of BrdU incorporation were performed according to the manufacturer's instructions (Boehringer Mannheim “Cell Proliferation ELISA Kit”).

HepG2 cells [4] = assay: Caspase-3 assay for apoptosis; format: cell-based, human; conditions: 100 mM thioacetamide, 24 hr
Procedure: Caspase-3 assay for apoptosis. Activation of caspase-3, an intracellular cysteine protease, was measured by cleavage of a caspase-specific peptide using the Caspase-3 Colorimetric Assay kit from R&D Systems. HepG2 cells were cultured and treated as above in T-75 tissue culture flasks. Following treatment, cells were scraped off and spun down. The assay was performed according to the kit instructions using 350 μl/flask of lysis buffer.

[5] = 20 mM acetaminophen, 16 mM caffeine, 100 mM thioacetamide

IC50 (HepG2 cells [3]; Homo sapiens, HepG2; read-out: IC50, BrdU incorporation in HepG2 cells): ~5 mM
Compound: CC(=O)Nc1ccc(O)cc1 [acetaminophen]
Number of difference bands on DD-PCR gel, Decreased (HepG2 cells [1]; acetaminophen 0.02 mM): 0
Number of difference bands on DD-PCR gel, Increased (HepG2 cells [1]; acetaminophen 0.02 mM): 0
Number of difference bands on DD-PCR gel, Decreased (HepG2 cells [1]; acetaminophen 0.2 mM): 0
Number of difference bands on DD-PCR gel, Increased (HepG2 cells [1]; acetaminophen 0.2 mM): 0
Number of difference bands on DD-PCR gel, Decreased (HepG2 cells [1]; acetaminophen 2 mM): 1
Number of difference bands on DD-PCR gel, Increased (HepG2 cells [1]; acetaminophen 2 mM): 4
Number of difference bands on DD-PCR gel, Decreased (HepG2 cells [1]; acetaminophen 20 mM): 16
Number of difference bands on DD-PCR gel, Increased (HepG2 cells [1]; acetaminophen 20 mM): 18
Number of genes with statistically significant (p<0.05) change in expression in three or more adjacent time points (HepG2 cells [2]; [5]): 258
LDH-A down-regulation on arrays (HepG2 cells [2]; 24 hr, 20 mM acetaminophen, wash 0.5× SSC at 65° C.): 11 fold
Metallothionein-1G induction on arrays (HepG2 cells [2]; acetaminophen, 24-hr time point): 18 fold
TTF-1 interacting peptide 21 up-regulation on arrays (HepG2 cells [2]; acetaminophen, 12 hr): 2.6 fold
inhibition at 20000 µM (HepG2 cells [3]; Homo sapiens, HepG2, 24 h; read-out: Inhibition of BrdU uptake (cell proliferation)): 67 to 80%

Compound: CC(=N)S [thioacetamide]
Metallothionein-1H induction (HepG2 cells [2]): strongly induced
Number of genes with statistically significant (p<0.05) change in expression in three or more adjacent time points (HepG2 cells [2]; [5]): 215
Global differential gene expression (rms) over time (HepG2 cells [2]; 1 to 24 hr, 20 mM acetaminophen, 16 mM caffeine, 100 mM thioacetamide): a high degree of differential expression is observed both at early and late time points
Expression ratio (treated/control), Array: MT-1B (H72722) (HepG2 cells [2]; Thioacetamide (24 hr)): 15
Expression ratio (treated/control), Array: MT-1G (H53340) (HepG2 cells [2]; Thioacetamide (24 hr)): 15
Expression ratio (treated/control), Array: MT-1H (H77766) (HepG2 cells [2]; Thioacetamide (24 hr)): 16
Expression ratio (treated/control), Array: MT-1L (N80129) (HepG2 cells [2]; Thioacetamide (24 hr)): 14
Expression ratio (treated/control), Array: MT-2 (R16596) (HepG2 cells [2]; Thioacetamide (24 hr)): 15
Caspase-3 activation (HepG2 cells [4]): significant activation
IC50 (HepG2 cells [3]; Homo sapiens, HepG2, read-out: IC50, BrdU incorporation in HepG2 cells): 57 mM
